Several values for one entry are separate records, joined by “and”; a condition that tells them apart may be missing. Equal entries are not always repeated. Inconclusive results and toxic doses are left out.
Test system: L1210 leukemia ip in BDF1 mice, survival T/C
Test: NCI In Vivo Anticancer Drug Screen. Data for tumor model L1210 Leukemia (intraperitoneal) in B6D2F1 (BDF1) mice
Conditions: endpoint: mean survival time, higher = longer survival
Outline: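 Value reflects the ratio of survival in compound-treated mice to survival in vehicle-treated controls, with both groups carrying the same transplanted tumor.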

[1] = dose: 12.5 mg/kg/injection, schedule: Q01DX009 (ip), vehicle: saline
[2] = dose: 25.0 mg/kg/injection, schedule: Q01DX009 (ip), vehicle: saline
[3] = dose: 50.0 mg/kg/injection, schedule: Q01DX001 (ip), vehicle: saline
[4] = dose: 50.0 mg/kg/injection, schedule: Q01DX009 (ip), vehicle: saline
[5] = dose: 100.0 mg/kg/injection, schedule: Q01DX001 (ip), vehicle: saline
[6] = dose: 200.0 mg/kg/injection, schedule: Q01DX001 (ip), vehicle: saline
[7] = dose: 400.0 mg/kg/injection, schedule: Q01DX001 (ip), vehicle: saline
[8] = dose: 100.0 mg/kg/injection, schedule: Q01DX009 (ip), vehicle: saline with Tween-80
[9] = dose: 200.0 mg/kg/injection, schedule: Q01DX009 (ip), vehicle: saline with Tween-80
[10] = dose: 100.0 mg/kg/injection, schedule: Q01DX009 (ip), vehicle: Klucel (hydroxypropylcellulose) (HPC)
[11] = dose: 200.0 mg/kg/injection, schedule: Q01DX009 (ip), vehicle: Klucel (hydroxypropylcellulose) (HPC)
[12] = dose: 400.0 mg/kg/injection, schedule: Q01DX009 (ip), vehicle: Klucel (hydroxypropylcellulose) (HPC)
[13] = dose: 50.0 mg/kg/injection, schedule: Q01DX009 (ip), vehicle: Klucel (hydroxypropylcellulose) (HPC)
[14] = dose: 100.0 mg/kg/injection, schedule: Q04DX003 (ip), vehicle: Klucel (hydroxypropylcellulose) (HPC)
[15] = dose: 200.0 mg/kg/injection, schedule: Q04DX003 (ip), vehicle: Klucel (hydroxypropylcellulose) (HPC)
[16] = dose: 400.0 mg/kg/injection, schedule: Q04DX003 (ip), vehicle: Klucel (hydroxypropylcellulose) (HPC)
[17] = dose: 100.0 mg/kg/injection, schedule: Q04DX003 (ip), vehicle: saline with Tween-80
[18] = dose: 400.0 mg/kg/injection, schedule: Q01DX009 (ip), vehicle: saline with Tween-80
[19] = dose: 100.0 mg/kg/injection, schedule: Q01DX009 (ip), vehicle: other
[20] = dose: 200.0 mg/kg/injection, schedule: Q01DX009 (ip), vehicle: other
[21] = dose: 100.0 mg/kg/injection, schedule: Q01DX001 (ip), vehicle: carboxymethylcellulose (CMC)

NCc1cc2c3c(c1)CCCN3CCC2
T/C (dose: 12.5 mg/kg/injection, schedule: Q01DX001 (ip), vehicle: saline): 111 % of control
T/C [1]: 97 % of control
T/C (dose: 25.0 mg/kg/injection, schedule: Q01DX001 (ip), vehicle: saline): 107 % of control
T/C [2]: 97 % of control
T/C [3]: 105 % of control
T/C [4]: 104 % of control

CCOC(=O)NCC(CCN1CCCC1)(CCN1CCCC1)c1cccc2ccccc12
T/C (dose: 25.0 mg/kg/injection, schedule: Q04DX002 (ip), vehicle: saline): 101 % of control
T/C (dose: 50.0 mg/kg/injection, schedule: Q04DX002 (ip), vehicle: saline): 93 % of control

C[N+]1(C)C2CCC1C(CO)C(O)C2 (centres undefined)
T/C [5]: 94 % of control
T/C [6]: 97 % of control
T/C [7]: 94 % of control

CCOC(=O)/C=C(\C)CO (tested in a mixture with another compound)
T/C (dose: 50.0 mg/kg/injection, schedule: Q01DX009 (ip), vehicle: saline with Tween-80): 93 % of control
T/C [8]: 93 % of control
T/C [9]: 101 % of control

Cc1ccc(CNC(=O)NC(C)(C)C)cc1
T/C [10]: 93 % of control
T/C [11]: 101 % of control
T/C [12]: 90 % of control

CCCCN1C(=O)C2CC=C3C=CN4C(C3C2C1=O)C1C(=O)N(CCCC)C(=O)C1C41CC(=O)N(CCCC)C1=O (centres undefined)
T/C (dose: 12.5 mg/kg/injection, schedule: Q01DX009 (ip), vehicle: Klucel (hydroxypropylcellulose) (HPC)): 101 % of control
T/C (dose: 25.0 mg/kg/injection, schedule: Q01DX009 (ip), vehicle: Klucel (hydroxypropylcellulose) (HPC)): 104 % of control
T/C [13]: 91 % of control
T/C [10]: 86 % of control
T/C [14]: 89 % of control
T/C [11]: 91 % of control
T/C [15]: 90 % of control
T/C [16]: 92 % of control

Oc1cc2c(O)cccc2c2ccccc12
T/C [17]: 92 % of control
T/C (dose: 200.0 mg/kg/injection, schedule: Q04DX003 (ip), vehicle: saline with Tween-80): 90 % of control

N#Cc1c(O)c(Cl)c(Cl)c(O)c1C#N
T/C [14]: 109 % of control
T/C [15]: 96 % of control
T/C [16]: 96 % of control

OC/C=C\CO
T/C [5]: 97 % of control and 103 % of control
T/C [6]: 97 % of control and 100 % of control
T/C [7]: 97 % of control and 105 % of control

Nc1cc(N)c([N+](=O)[O-])cc1[N+](=O)[O-]
T/C [8]: 98 % of control
T/C [9]: 93 % of control
T/C [18]: 98 % of control

COc1ccc2c(c1)C(=O)CC(C)N2S(=O)(=O)c1ccc(C)cc1 (centres undefined)
T/C (dose: 18.75 mg/kg/injection, schedule: Q04DX002 (ip), vehicle: Klucel (hydroxypropylcellulose) (HPC)): 95 % of control
T/C (dose: 37.5 mg/kg/injection, schedule: Q04DX002 (ip), vehicle: Klucel (hydroxypropylcellulose) (HPC)): 113 % of control
T/C (dose: 75.0 mg/kg/injection, schedule: Q04DX002 (ip), vehicle: Klucel (hydroxypropylcellulose) (HPC)): 103 % of control
T/C (dose: 150.0 mg/kg/injection, schedule: Q04DX002 (ip), vehicle: Klucel (hydroxypropylcellulose) (HPC)): 98 % of control and 103 % of control
T/C (dose: 300.0 mg/kg/injection, schedule: Q04DX002 (ip), vehicle: Klucel (hydroxypropylcellulose) (HPC)): 87 % of control

Cc1nc(Cl)c2cnccn12
T/C [1]: 101 % of control
T/C [2]: 105 % of control
T/C [4]: 103 % of control
T/C (dose: 100.0 mg/kg/injection, schedule: Q04DX003 (ip), vehicle: saline): 88 % of control

COc1cc([N+](=O)[O-])ccc1NC(=O)C(Br)C(Br)c1ccccc1 (centres undefined)
T/C [19]: 110 % of control
T/C [20]: 96 % of control
T/C (dose: 400.0 mg/kg/injection, schedule: Q01DX009 (ip), vehicle: other): 88 % of control

CC1=CCCC(C)(C)C1/C=C/C(=O)O (centres undefined)
T/C [10]: 105 % of control
T/C [11]: 97 % of control
T/C [12]: 101 % of control

CNC(=S)n1cncn1
T/C (dose: 100.0 mg/kg/injection, schedule: Q01DX009 (ip), vehicle: saline): 91 % of control
T/C (dose: 200.0 mg/kg/injection, schedule: Q01DX009 (ip), vehicle: saline): 108 % of control
T/C (dose: 400.0 mg/kg/injection, schedule: Q01DX009 (ip), vehicle: saline): 92 % of control

CC(C)OC(=O)c1ccc(N)cc1S(N)(=O)=O
T/C (dose: 100.0 mg/kg/injection, schedule: Q01DX001 (ip), vehicle: other): 106 % of control

NC(=O)c1nc(-c2ccccc2)c(-c2ccccc2)[nH]c1=O
T/C [8]: 104 % of control
T/C [9]: 95 % of control
T/C [18]: 96 % of control

Cc1ncc(N)c2c1OC(C)(C)OC2
T/C [3]: 91 % of control

O=C(O)C1CCC=CCC1
T/C (dose: 50.0 mg/kg/injection, schedule: Q01DX009 (ip), vehicle: other): 91 % of control
T/C [19]: 96 % of control
T/C [20]: 98 % of control

C[C@@H](N)[C@@H](O)c1ccccc1
T/C (dose: 30.0 mg/kg/injection, schedule: Q01DX Z (oral), vehicle: saline): 101 % of control
T/C (dose: 60.0 mg/kg/injection, schedule: Q01DX Z (oral), vehicle: saline): 101 % of control

C[N+]1(CC2CO2)CCCCCC1 (centres undefined)
T/C (dose: 75.0 mg/kg/injection, schedule: Q01DX001 (ip), vehicle: saline): 95 % of control

CCOC(=O)NNC(=O)O
T/C (dose: 50.0 mg/kg/injection, schedule: Q01DX001 (ip), vehicle: carboxymethylcellulose (CMC)): 108 % of control
T/C [21]: 90 % of control

COC(=O)C1CC2OC2C(C)C1C(=O)OC (centres undefined)
T/C [10]: 95 % of control
T/C [11]: 103 % of control
T/C [12]: 105 % of control

CC(C)C(CN)(CCN1CCCCC1)Cc1cccc2ccccc12 (centres undefined)
T/C [17]: 97 % of control

[N-]=[N+]=C1N=C(Br)N=C1c1n[nH]c(Br)n1
T/C (dose: 100.0 mg/kg/injection, schedule: Q01DX001 (ip), vehicle: Klucel (hydroxypropylcellulose) (HPC)): 98 % of control
T/C (dose: 200.0 mg/kg/injection, schedule: Q01DX001 (ip), vehicle: Klucel (hydroxypropylcellulose) (HPC)): 109 % of control
T/C (dose: 400.0 mg/kg/injection, schedule: Q01DX001 (ip), vehicle: Klucel (hydroxypropylcellulose) (HPC)): 102 % of control

Cc1cccc(C)c1N=Nc1sc(N)nc1C
T/C (dose: 75.0 mg/kg/injection, schedule: Q01DX001 (ip), vehicle: acetone): 114 % of control
T/C (dose: 150.0 mg/kg/injection, schedule: Q01DX001 (ip), vehicle: acetone): 94 % of control
T/C (dose: 300.0 mg/kg/injection, schedule: Q01DX001 (ip), vehicle: acetone): 110 % of control

c1cc2c(c3c1CC1c4cc5c(cc4CCN1C3)OCO5)OCO2 (centres undefined)
T/C [5]: 86 % of control

O=c1[nH]c(Cc2ccccc2)c(N=Nc2ccccc2)c(=O)[nH]1
T/C (dose: 25.0 mg/kg/injection, schedule: Q01DX001 (ip), vehicle: saline with Tween-80): 93 % of control
T/C (dose: 50.0 mg/kg/injection, schedule: Q01DX001 (ip), vehicle: saline with Tween-80): 93 % of control
T/C (dose: 100.0 mg/kg/injection, schedule: Q01DX001 (ip), vehicle: saline with Tween-80): 93 % of control

O=CC(O)C(O)C(O)C(O)COC(=S)OCC(O)C(O)C(O)C(O)C=O (centres undefined) (tested in a mixture with another compound)
T/C (dose: 100.0 mg/kg/injection, schedule: Q04DX002 (ip), vehicle: saline): 110 % of control
T/C (dose: 200.0 mg/kg/injection, schedule: Q04DX002 (ip), vehicle: saline): 100 % of control
T/C (dose: 400.0 mg/kg/injection, schedule: Q04DX002 (ip), vehicle: saline): 95 % of control

COC(=O)C1=CO[C@H](C)[C@@H]2CN3CCc4c([nH]c5ccccc45)[C@@H]3C[C@H]12
T/C (dose: 17.5 mg/kg/injection, schedule: Q01DX Z (ip), vehicle: carboxymethylcellulose (CMC)): 98 % of control

CNC(=O)N(C)Cc1ccco1
T/C [13]: 91 % of control
T/C [10]: 102 % of control
T/C [11]: 101 % of control

NC1NC(=O)C(CCCOc2ccc([N+](=O)[O-])cc2)C(c2ccccc2)N1 (centres undefined)
T/C [10]: 91 % of control
T/C [11]: 110 % of control
T/C [12]: 89 % of control

Nc1cc2c(cc1I)-c1ccccc1C2=O
T/C [21]: 94 % of control
T/C (dose: 200.0 mg/kg/injection, schedule: Q01DX001 (ip), vehicle: carboxymethylcellulose (CMC)): 89 % of control
T/C (dose: 400.0 mg/kg/injection, schedule: Q01DX001 (ip), vehicle: carboxymethylcellulose (CMC)): 97 % of control
